Measured values taken from ChEMBL document CHEMBL1156312, “Comparison of the antiplasmodial and falcipain-2 inhibitory activity of beta-amino alcohol thiolactone-chalcone and isatin-chalcone hybrids” (Bioorg Med Chem Lett, 2010).

Tests used:
[1] = Inhibition of recombinant Plasmodium falciparum falcipain-2
[2] = test system: Plasmodium falciparum; experiment: Antimicrobial activity against chloroquine-resistant Plasmodium falciparum W2; type: functional, organism-based

| Compound | IC50 [1] | IC50 [2] |
| --- | --- | --- |
| COc1ccc(/C=C/C(=O)c2ccc(OCc3cn(CC(O)COC4=C(C)C(=O)SC4C)nn3)cc2)c(OC)c1OC (stereo not given) | 0.81 µM | > 100 µM |
| COc1ccc(C(=O)/C=C/c2ccccc2OCc2cn(CC(O)CN3C(=O)C(=O)c4cc(Cl)ccc43)nn2)cc1 (stereo not given) | > 20 µM | 25.4 µM |
| COc1ccc(C(=O)/C=C/c2ccccc2OCc2cn(CC(O)CN3C(=O)C(=O)c4cc(Cl)ccc43)nn2)c(OC)c1 (stereo not given) | > 20 µM | 15.6 µM |
| COc1ccc(C(=O)/C=C/c2ccccc2OCc2cn(CC(O)CN3C(=O)C(=O)c4cc(Cl)ccc43)nn2)c(OC)c1OC (stereo not given) | 6.1 µM | 90.5 µM |
| COc1ccc(C(=O)/C=C/c2cccc(OCc3cn(CC(O)CN4C(=O)C(=O)c5cc(Cl)ccc54)nn3)c2)cc1 (stereo not given) | 5.75 µM | 10.3 µM |
| COc1ccc(C(=O)/C=C/c2cccc(OCc3cn(CC(O)CN4C(=O)C(=O)c5cc(Cl)ccc54)nn3)c2)c(OC)c1 (stereo not given) | 3.17 µM | 6.8 µM |
| COc1ccc(C(=O)/C=C/c2cccc(OCc3cn(CC(O)CN4C(=O)C(=O)c5cc(Cl)ccc54)nn3)c2)c(OC)c1OC (stereo not given) | 2.18 µM | 11.5 µM |
| COc1ccc(C(=O)/C=C/c2ccc(OCc3cn(CC(O)CN4C(=O)C(=O)c5cc(Cl)ccc54)nn3)cc2)cc1 (stereo not given) | 10.6 µM | 10.8 µM |
| COc1ccc(C(=O)/C=C/c2ccc(OCc3cn(CC(O)CN4C(=O)C(=O)c5cc(Cl)ccc54)nn3)cc2)c(OC)c1 (stereo not given) | 9.73 µM |  |
| COc1ccc(C(=O)/C=C/c2ccc(OCc3cn(CC(O)CN4C(=O)C(=O)c5cc(Cl)ccc54)nn3)cc2)c(OC)c1OC (stereo not given) | 11 µM | 16.6 µM |
| COc1ccc(/C=C/C(=O)c2ccccc2OCc2cn(CC(O)CN3C(=O)C(=O)c4cc(Cl)ccc43)nn2)cc1 (stereo not given) | 7.79 µM | 16 µM |
| COc1ccc(/C=C/C(=O)c2ccccc2OCc2cn(CC(O)CN3C(=O)C(=O)c4cc(Cl)ccc43)nn2)c(OC)c1 (stereo not given) | 2.09 µM | 15 µM |
| COc1ccc(/C=C/C(=O)c2ccccc2OCc2cn(CC(O)CN3C(=O)C(=O)c4cc(Cl)ccc43)nn2)c(OC)c1OC (stereo not given) | 6.21 µM | 15.3 µM |
| COc1ccc(/C=C/C(=O)c2cccc(OCc3cn(CC(O)CN4C(=O)C(=O)c5cc(Cl)ccc54)nn3)c2)cc1 (stereo not given) | 3.57 µM | 9.91 µM |
| COc1ccc(/C=C/C(=O)c2cccc(OCc3cn(CC(O)CN4C(=O)C(=O)c5cc(Cl)ccc54)nn3)c2)c(OC)c1 (stereo not given) | 2.95 µM | 10.6 µM |
| COc1ccc(/C=C/C(=O)c2cccc(OCc3cn(CC(O)CN4C(=O)C(=O)c5cc(Cl)ccc54)nn3)c2)c(OC)c1OC (stereo not given) | 2.57 µM | 16.7 µM |
| COc1ccc(/C=C/C(=O)c2ccc(OCc3cn(CC(O)CN4C(=O)C(=O)c5cc(Cl)ccc54)nn3)cc2)cc1 (stereo not given) | 14.9 µM | 15.9 µM |
| COc1ccc(/C=C/C(=O)c2ccc(OCc3cn(CC(O)CN4C(=O)C(=O)c5cc(Cl)ccc54)nn3)cc2)c(OC)c1 (stereo not given) | 14.5 µM | 18.3 µM |
| COc1ccc(/C=C/C(=O)c2ccc(OCc3cn(CC(O)CN4C(=O)C(=O)c5cc(Cl)ccc54)nn3)cc2)c(OC)c1OC (stereo not given) | > 20 µM | 25.1 µM |
| COc1ccc(/C=C/C(=O)c2ccccc2OCc2cn(CC(O)COC3=C(C)C(=O)SC3C)nn2)cc1 (stereo not given) | 2.64 µM | > 100 µM |
| COc1ccc(C(=O)/C=C/c2ccccc2OCc2cn(CC(O)COC3=C(C)C(=O)SC3C)nn2)cc1 (stereo not given) | 2.31 µM | > 100 µM |

| Compound | IC50 [1] | IC50 [2] |
| --- | --- | --- |
| COc1ccc(C(=O)/C=C/c2cccc(OCc3cn(CC(O)COC4=C(C)C(=O)SC4C)nn3)c2)cc1 (stereo not given) | 2.43 µM | > 100 µM |
| COc1ccc(C(=O)/C=C/c2cccc(OCc3cn(CC(O)COC4=C(C)C(=O)SC4C)nn3)c2)c(OC)c1 (stereo not given) | 1.64 µM | > 100 µM |
| COc1ccc(C(=O)/C=C/c2ccc(OCc3cn(CC(O)COC4=C(C)C(=O)SC4C)nn3)cc2)cc1 (stereo not given) | 3.12 µM | > 100 µM |
| COc1ccc(C(=O)/C=C/c2ccccc2OCc2cn(CC(O)COC3=C(C)C(=O)SC3C)nn2)c(OC)c1 (stereo not given) | 2.08 µM | > 100 µM |
| COc1ccc(C(=O)/C=C/c2ccc(OCc3cn(CC(O)COC4=C(C)C(=O)SC4C)nn3)cc2)c(OC)c1 (stereo not given) | 1.54 µM | > 100 µM |
| COc1ccc(C(=O)/C=C/c2ccccc2OCc2cn(CC(O)COC3=C(C)C(=O)SC3C)nn2)c(OC)c1OC (stereo not given) | 1.14 µM | > 100 µM |
| COc1ccc(C(=O)/C=C/c2cccc(OCc3cn(CC(O)COC4=C(C)C(=O)SC4C)nn3)c2)c(OC)c1OC (stereo not given) | 2 µM | > 100 µM |
| CC1=C(OCC(O)CN=[N+]=[N-])C(C)SC1=O (stereo not given) | > 20 µM | > 100 µM |
| COC1(OC)C(=O)N(CC(O)CN=[N+]=[N-])c2ccc(Cl)cc21 (stereo not given) | > 20 µM | > 100 µM |
| COc1ccc(/C=C/C(=O)c2ccccc2OCc2cn(CC(O)COC3=C(C)C(=O)SC3C)nn2)c(OC)c1 (stereo not given) | 2.14 µM | > 100 µM |
| COc1ccc(/C=C/C(=O)c2cccc(OCc3cn(CC(O)COC4=C(C)C(=O)SC4C)nn3)c2)cc1 (stereo not given) | 3.69 µM | > 100 µM |
| COc1ccc(/C=C/C(=O)c2cccc(OCc3cn(CC(O)COC4=C(C)C(=O)SC4C)nn3)c2)c(OC)c1 (stereo not given) | 3.51 µM | > 100 µM |
| COc1ccc(/C=C/C(=O)c2ccc(OCc3cn(CC(O)COC4=C(C)C(=O)SC4C)nn3)cc2)cc1 (stereo not given) | 6.08 µM | > 100 µM |
| COc1ccc(C(=O)/C=C/c2ccc(OCc3cn(CC(O)COC4=C(C)C(=O)SC4C)nn3)cc2)c(OC)c1OC (stereo not given) | 5.04 µM | > 100 µM |
| COc1ccc(/C=C/C(=O)c2ccc(OCc3cn(CC(O)COC4=C(C)C(=O)SC4C)nn3)cc2)c(OC)c1 (stereo not given) | 3.1 µM | 28.5 µM |
| COc1ccc(/C=C/C(=O)c2cccc(OCc3cn(CC(O)COC4=C(C)C(=O)SC4C)nn3)c2)c(OC)c1OC (stereo not given) | 0.68 µM | > 100 µM |
| CCN(CC)CCCC(C)Nc1ccnc2cc(Cl)ccc12 (stereo not given) [CHLOROQUINE] | 0.0694 µM |  |
| O=C1Nc2ccccc2C1=O [ISATIN] | > 20 µM | > 100 µM |
| C=C/C(C)=C/[C@@]1(C)SC(=O)C(C)=C1O [THIOLACTOMYCIN] | > 20 µM | > 100 µM |
| CC1=C(O)SC(C)C1=O (stereo not given) [THIOLACTONE] | > 20 µM | > 100 µM |
